Source: the supplement of paper PMC12076712
± gives the standard deviation of the averaged measurements.

Legend:
Experiment in all cases: pIC50, competition of probe 3 labelling in live cells
Conditions in all cases: cell material: Jurkat cells
UniProt P36507 = biological target: UniProt P36507
UniProt P45983 = biological target: UniProt P45983
UniProt P51812 = biological target: UniProt P51812
UniProt Q02750 = biological target: UniProt Q02750
UniProt P06493 = biological target: UniProt P06493
SLK = SLK (UniProt Q9H2G2)
TLK2 = TLK2 (UniProt Q86UE8)
NT5C3B = NT5C3B (UniProt Q969T7)
UniProt O43318 = biological target: T1, UniProt O43318
T1 sequence (whole entry): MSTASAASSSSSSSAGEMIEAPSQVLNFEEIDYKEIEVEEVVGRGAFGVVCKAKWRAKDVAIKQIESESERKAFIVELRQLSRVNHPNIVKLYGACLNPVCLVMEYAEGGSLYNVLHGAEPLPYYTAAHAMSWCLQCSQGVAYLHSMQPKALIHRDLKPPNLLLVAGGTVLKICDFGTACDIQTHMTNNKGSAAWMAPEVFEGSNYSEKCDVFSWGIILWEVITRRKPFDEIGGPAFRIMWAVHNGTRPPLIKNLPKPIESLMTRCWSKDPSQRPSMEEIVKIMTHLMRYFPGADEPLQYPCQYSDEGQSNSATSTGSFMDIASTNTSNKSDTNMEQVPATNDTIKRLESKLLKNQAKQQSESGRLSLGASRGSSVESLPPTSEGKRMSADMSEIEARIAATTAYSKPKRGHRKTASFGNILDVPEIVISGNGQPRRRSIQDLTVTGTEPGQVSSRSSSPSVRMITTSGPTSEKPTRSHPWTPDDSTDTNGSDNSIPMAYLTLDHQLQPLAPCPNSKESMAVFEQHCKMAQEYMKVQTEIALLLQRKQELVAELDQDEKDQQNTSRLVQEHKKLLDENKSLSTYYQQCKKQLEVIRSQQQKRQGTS

SGK3 = biological target: T2, SGK3 (UniProt Q96BR1)
T2 sequence (whole entry): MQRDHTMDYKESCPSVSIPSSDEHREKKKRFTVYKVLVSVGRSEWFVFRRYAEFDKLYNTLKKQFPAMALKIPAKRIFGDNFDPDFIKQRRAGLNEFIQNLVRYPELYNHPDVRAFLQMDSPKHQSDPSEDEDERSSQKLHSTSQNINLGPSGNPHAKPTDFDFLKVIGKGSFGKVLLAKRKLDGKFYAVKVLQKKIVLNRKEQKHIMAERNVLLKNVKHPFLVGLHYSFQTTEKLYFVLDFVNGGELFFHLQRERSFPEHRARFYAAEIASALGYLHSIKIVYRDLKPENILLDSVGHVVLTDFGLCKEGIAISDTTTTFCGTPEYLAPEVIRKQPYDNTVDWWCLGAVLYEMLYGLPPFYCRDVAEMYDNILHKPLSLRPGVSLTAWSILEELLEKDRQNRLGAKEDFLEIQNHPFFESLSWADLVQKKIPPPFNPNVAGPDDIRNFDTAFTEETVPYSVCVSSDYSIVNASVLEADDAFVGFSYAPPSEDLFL

UniProt Q9Y2H1 = biological target: UniProt Q9Y2H1
PNPLA6 = PNPLA6 (UniProt Q8IY17)
UniProt P49841 = biological target: UniProt P49841
UniProt P19784 = biological target: UniProt P19784
LYPLA2 = LYPLA2 (UniProt O95372)
UniProt P28482 = biological target: UniProt P28482
SPR = SPR (UniProt P35270)
UniProt O75582 = biological target: UniProt O75582
UniProt P27361 = biological target: UniProt P27361
UniProt Q9Y6E0 = biological target: UniProt Q9Y6E0
MAP4K5 = MAP4K5 (UniProt Q9Y4K4)
UniProt Q15208 = biological target: UniProt Q15208
SCCPDH = SCCPDH (UniProt Q8NBX0)
CTSA = CTSA (UniProt P10619)
IRAK1 = IRAK1 (UniProt P51617)
UniProt Q92918 = biological target: UniProt Q92918
UniProt Q15418 = biological target: UniProt Q15418
CAMKK2 = CAMKK2 (UniProt Q96RR4)
ABCC1 = ABCC1 (UniProt P33527)
UniProt Q9P289 = biological target: UniProt Q9P289
TAOK3 = TAOK3 (UniProt Q9H2K8)

| Structure (SMILES) | pIC50 (UniProt P36507) | pIC50 (UniProt P45983) | pIC50 (UniProt P51812) | pIC50 (UniProt Q02750) | pIC50 (UniProt P06493) | pIC50 (SLK) | pIC50 (TLK2) | pIC50 (NT5C3B) | pIC50 (UniProt O43318) | pIC50 (SGK3) | pIC50 (UniProt Q9Y2H1) | pIC50 (PNPLA6) | pIC50 (UniProt P49841) | pIC50 (UniProt P19784) | pIC50 (LYPLA2) | pIC50 (UniProt P28482) | pIC50 (SPR) | pIC50 (UniProt O75582) | pIC50 (UniProt P27361) | pIC50 (UniProt Q9Y6E0) | pIC50 (MAP4K5) | pIC50 (UniProt Q15208) | pIC50 (SCCPDH) | pIC50 (CTSA) | pIC50 (IRAK1) | pIC50 (UniProt Q92918) | pIC50 (UniProt Q15418) | pIC50 (CAMKK2) | pIC50 (ABCC1) | pIC50 (UniProt Q9P289) | pIC50 (TAOK3) |
| --- | --- | --- | --- | --- | --- | --- | --- | --- | --- | --- | --- | --- | --- | --- | --- | --- | --- | --- | --- | --- | --- | --- | --- | --- | --- | --- | --- | --- | --- | --- | --- |
| CC#CC(=O)Nc1ccc2ncnc(Nc3cccc(Br)c3)c2c1 [EKI-785] | < 4.52 | < 4.52 | < 4.52 | < 4.52 | < 4.52 | – | – | – | – | – | – | – | – | – | – | – | – | – | – | – | – | – | – | – | – | – | – | – | – | – | – |
| CCc1cnn2c(NCc3ccc[n+]([O-])c3)cc(N3CCCC[C@H]3CCO)nc12 [dinaciclib] | – | – | – | – | – | < 4.52 | < 4.52 | < 4.52 | < 4.52 | < 4.52 | < 4.52 | < 4.52 | 4.85 ± 0.27 | < 4.52 | < 4.52 | < 4.52 | < 4.52 | < 4.52 | < 4.52 | < 4.52 | < 4.52 | < 4.52 | < 4.52 | < 4.52 | < 4.52 | < 4.52 | < 4.52 | < 4.52 | < 4.52 | < 4.52 | < 4.52 |
